Read-outs that look alike come from different tables or passages of the source.
What was measured:
[1] = target: NEK7 (Homo sapiens (Human), UniProt Q8TDX7+Q96SW2); assay: NEK7 NanoBiT degradation assay in Cal51 NEK7 NanoBiT cell line; format: cell-based; conditions: Cal51 NEK7 NanoBiT cells, 24 hours; for Dmax: CAL-51
Experimental: Cal51 NEK7 NanoBiT cell line was generated via CRISPR Knock-In of the HiBiT tag in NEK7 gene and stable infection with a lentivirus carrying LgBiT protein. The cell line was generated in house. For the experiment, cells were plated in 384-well white flat bottom plates (Corning, 3570BC) at 2500 cells per well using Multiflo (BioTek/Agilent) and in 25 μl volume in DMEM experimental medium: DMEM (DMEM, high glucose, HEPES, no phenol red (ThermoFisher Scientific, 21063029) supplemented with 10% FBS (Corning, 35-075-CV), 1% Penicillin/Streptomycin ((ThermoFisher Scientific, 15140-122), and 1% Endurazine (Nano-Glo Endurazine Live Cell Substrate (Promega, N2571)). Cells were incubated for 16 hours at 37° C., 5% CO2 before compound addition. For dose response determination, 2.5 nL of a compound at different concentrations (stock compound concentration range: 10 mM to 0.5 μM, final concentration range inside cell plate: 1 μM to 0.05 nM) were dispensed into the plate using an Echo® 650 liquid handling device (Backman Coulter/Labcyte). Cells were incubated at 37° C., 5% CO2 for 24 hours and then signal was read on a Pherastar FSX using “LUM plus” optic module with 4095 gain and measurement interval time 0.2 seconds.
Analysis was performed in Genedata Screener (Genedata, Basel, CH). Luminescence response (R) was calculated by the formula: response=100*(S−N)/(P−N) where S is the signal of the well, N and P the mean negative and positive control values respectively of the same plate. The luminescence response was then fitted in Genedata using a 4-parameter antagonist logistic fit (hill slope unconstrained, EC50>0, top/bottom unconstrained).

[2] = target: CRBN-DDB1 (Homo sapiens (Human), UniProt Q96SW2); assay: Compound binding to CRBN by HTRF assay
Chain of CRBN-DDB1 (Q96SW2 whole entry): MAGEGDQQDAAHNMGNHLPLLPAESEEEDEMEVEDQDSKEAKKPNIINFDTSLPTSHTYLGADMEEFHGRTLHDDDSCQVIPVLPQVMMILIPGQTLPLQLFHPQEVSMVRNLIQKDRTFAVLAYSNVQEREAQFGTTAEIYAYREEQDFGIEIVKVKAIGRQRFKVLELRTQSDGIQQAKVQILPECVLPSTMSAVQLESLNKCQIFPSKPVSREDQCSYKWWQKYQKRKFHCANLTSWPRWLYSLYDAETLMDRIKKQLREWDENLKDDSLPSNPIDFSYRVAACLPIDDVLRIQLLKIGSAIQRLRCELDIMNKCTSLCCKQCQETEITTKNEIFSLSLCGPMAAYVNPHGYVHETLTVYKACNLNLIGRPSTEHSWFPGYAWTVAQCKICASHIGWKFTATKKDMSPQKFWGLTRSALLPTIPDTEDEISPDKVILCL
Chain of CRBN-DDB1 (Q16531 whole entry partner): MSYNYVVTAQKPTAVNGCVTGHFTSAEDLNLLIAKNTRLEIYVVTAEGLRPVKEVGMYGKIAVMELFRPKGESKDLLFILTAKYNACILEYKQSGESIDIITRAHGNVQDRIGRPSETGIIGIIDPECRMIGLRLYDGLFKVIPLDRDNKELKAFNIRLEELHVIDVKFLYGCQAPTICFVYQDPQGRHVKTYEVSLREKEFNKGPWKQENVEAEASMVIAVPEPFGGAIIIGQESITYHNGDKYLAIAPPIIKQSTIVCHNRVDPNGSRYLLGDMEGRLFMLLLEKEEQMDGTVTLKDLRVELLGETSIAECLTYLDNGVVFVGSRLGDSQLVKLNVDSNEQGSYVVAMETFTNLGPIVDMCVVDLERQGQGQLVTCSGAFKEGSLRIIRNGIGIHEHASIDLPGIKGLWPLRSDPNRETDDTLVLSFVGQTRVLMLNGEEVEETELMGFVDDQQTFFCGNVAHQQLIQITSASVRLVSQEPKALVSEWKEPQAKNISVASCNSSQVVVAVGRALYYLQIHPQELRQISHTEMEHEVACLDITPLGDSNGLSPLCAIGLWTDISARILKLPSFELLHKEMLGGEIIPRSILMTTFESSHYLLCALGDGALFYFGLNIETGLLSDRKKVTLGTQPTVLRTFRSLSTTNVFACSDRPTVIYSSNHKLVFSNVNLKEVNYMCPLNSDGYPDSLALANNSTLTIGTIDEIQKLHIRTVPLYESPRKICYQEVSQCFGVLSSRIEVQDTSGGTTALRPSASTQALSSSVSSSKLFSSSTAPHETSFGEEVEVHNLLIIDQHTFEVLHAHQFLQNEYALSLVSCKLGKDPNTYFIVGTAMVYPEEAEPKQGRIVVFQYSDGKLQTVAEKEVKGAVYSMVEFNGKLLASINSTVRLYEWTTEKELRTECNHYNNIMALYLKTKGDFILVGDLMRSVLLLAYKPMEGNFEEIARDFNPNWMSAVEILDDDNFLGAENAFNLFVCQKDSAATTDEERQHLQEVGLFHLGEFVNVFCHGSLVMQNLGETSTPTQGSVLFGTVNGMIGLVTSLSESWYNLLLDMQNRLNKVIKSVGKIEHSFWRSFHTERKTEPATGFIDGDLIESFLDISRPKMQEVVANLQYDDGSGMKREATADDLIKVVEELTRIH
Experimental: Compound activity was monitored in a Homogenous Time-Resolved Fluorescence (HTRF) assay using 1-[5-({2-[2-(2-{[2-(2,6-dioxopiperidin-3-yl)-1,3-dioxo-2,3-dihydro-1H-isoindol-4-yl]oxy}acetamido)ethoxy]ethyl}carbamoyl)pentyl]-3,3-dimethyl-2-[(1E,3E)-5-[(2E)-1,3,3-trimethyl-5-sulfo-2,3-dihydro-1H-indol-2-ylidene]penta-1,3-dien-1-yl]-3H-indol-1-ium-5-sulfonate as a fluorescent probe. Biochemical assays were conducted in Greiner white 384 well HiBase plates (Cat. No 784075-25) in 20 μL total volume. A one pot detection solution of CRBN-DDB1 (2.5 nM), Anti-His Terbium Cryptate Gold (1×, PerkinElmer Cat. #: 61HI2TLB), and Cy5-Thalidomide (100 nM, Tenova Cat.: T52461) was prepared in 20 mM HEPES, 20 mM NaCl, 0.2 mM TCEP, 0.2 mM EDTA, and 0.005% Tween20 was dispensed to each assay plate. Compounds were stored in dry, ambient temperatures at 10 mM. An 11-point, 1:3 dilution series was prepared from 10 mM stock concentrations in Echo-compatible LDV plates. 10 nL of each compound dilution series was dispensed into assays wells using an Echo 650 (Labcyte Inc. USA). 20 nL of 10 mM Lenalidomide was transferred into the active-control wells for the assay and 20 nL of DMSO was transferred into the neutral-control wells. The assay was then allowed to incubate for 30 min at ambient temperature after transferring compound. Plate measurements were taken on a Pherastar FSX (BMG Labtech, Germany) using the HTRF Red filter (Ex. 337 nm, em1: 620 nm, em2: 665 nm) (Flashes: 50, Integration time: 60-400 us, Z-height: 10 mm, Ratio-multiplier: 10,000). The HTRF signal was then subsequently normalized to the neutral and active controls. Analysis and EC50 values were derived using KNIME analytics (KNIME Zurich) transformation and fitting within Collaborative Drug Discovery (Collaborative Drug Discovery USA). Ki was derived from the geometric mean of the EC50 values using the Cheng-Prustoff transformation.

[3] = NEK7 degradation, read-out: NanoBiT Dmax
[4] = NEK7 degradation, read-out: NanoBiT DC50

Chain of NEK7 (Q8TDX7 whole entry): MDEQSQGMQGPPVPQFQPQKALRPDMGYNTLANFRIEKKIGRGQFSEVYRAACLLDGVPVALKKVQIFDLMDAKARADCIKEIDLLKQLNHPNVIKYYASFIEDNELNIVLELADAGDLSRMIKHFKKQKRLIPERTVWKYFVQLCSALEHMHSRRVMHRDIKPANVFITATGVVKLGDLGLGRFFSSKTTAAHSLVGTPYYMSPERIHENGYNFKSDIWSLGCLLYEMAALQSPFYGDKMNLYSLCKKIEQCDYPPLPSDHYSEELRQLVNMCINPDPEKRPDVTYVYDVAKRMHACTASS
Chain of NEK7 (Q96SW2 whole entry): as the sequence (Q96SW2 whole entry) above
Chain of NEK7 (Q16531 2-1140 partner): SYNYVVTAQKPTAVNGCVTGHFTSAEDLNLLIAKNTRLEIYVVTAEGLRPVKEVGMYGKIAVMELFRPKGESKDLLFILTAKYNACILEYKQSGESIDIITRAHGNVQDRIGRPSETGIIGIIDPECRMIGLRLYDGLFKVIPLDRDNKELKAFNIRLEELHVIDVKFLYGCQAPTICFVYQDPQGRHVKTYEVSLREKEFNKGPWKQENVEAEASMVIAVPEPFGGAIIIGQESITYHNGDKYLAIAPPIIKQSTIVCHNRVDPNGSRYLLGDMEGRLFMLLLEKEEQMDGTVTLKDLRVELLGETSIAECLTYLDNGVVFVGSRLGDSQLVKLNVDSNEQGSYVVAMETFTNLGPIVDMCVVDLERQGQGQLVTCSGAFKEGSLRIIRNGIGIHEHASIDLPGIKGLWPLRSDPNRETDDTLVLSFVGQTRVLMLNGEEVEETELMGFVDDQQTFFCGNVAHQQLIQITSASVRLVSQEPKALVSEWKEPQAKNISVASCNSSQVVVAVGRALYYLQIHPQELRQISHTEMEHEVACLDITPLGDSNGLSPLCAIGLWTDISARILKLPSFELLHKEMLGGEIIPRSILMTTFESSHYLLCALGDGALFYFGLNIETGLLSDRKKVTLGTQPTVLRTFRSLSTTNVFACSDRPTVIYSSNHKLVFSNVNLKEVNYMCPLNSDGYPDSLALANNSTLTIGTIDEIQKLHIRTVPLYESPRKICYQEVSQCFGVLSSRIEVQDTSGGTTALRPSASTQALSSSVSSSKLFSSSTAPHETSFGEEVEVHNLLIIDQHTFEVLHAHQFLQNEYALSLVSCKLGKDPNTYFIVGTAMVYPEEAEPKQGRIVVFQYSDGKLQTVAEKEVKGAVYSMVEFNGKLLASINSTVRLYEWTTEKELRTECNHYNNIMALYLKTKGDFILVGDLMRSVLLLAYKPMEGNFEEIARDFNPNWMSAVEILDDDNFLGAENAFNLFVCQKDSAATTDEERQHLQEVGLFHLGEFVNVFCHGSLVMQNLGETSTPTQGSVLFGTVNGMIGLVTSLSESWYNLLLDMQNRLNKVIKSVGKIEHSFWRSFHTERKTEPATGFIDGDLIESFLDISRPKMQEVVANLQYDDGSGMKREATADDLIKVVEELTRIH

| SMILES | Dmax ([1]; read-out: NEK7 NanoBiT Dmax) [%] | Dmax [1, 3] [%] | DC50 ([1]; read-out: NEK7 NanoBiT DC50) [µM] | DC50 [1, 4] [µM] | EC50 [2] [µM] | EC50 ([2]; HTRF class, Cereblon binding) [µM] |
| --- | --- | --- | --- | --- | --- | --- |
| CC(C)(C(=O)NCc1cc(Cl)c(C2CCC(=O)NC2=O)c(Cl)c1)c1cc2ncccc2cn1 (stereo not drawn) [Compound 2, N-(3,5-dichloro-4-(2,6-dioxopiperidin-3-yl)benzyl)-2-methyl-2-(1,6-naphthyridin-7-yl)propanamide] | 94 | > 75 | 0.003 | ≤ 0.1 | 0.11 | 0.1 to 1 |
| CC(C)(C(=O)NCc1cc(Cl)c(C2CCC(=O)NC2=O)c(Cl)c1)c1ccc(C(F)F)cn1 (stereo not drawn) [Compound 4, N-(3,5-dichloro-4-(2,6-dioxopiperidin-3-yl)benzyl)-2-(5-(difluoromethyl)pyridin-2-yl)-2-methylpropanamide] | 94 | > 75 | 0.003 | ≤ 0.1 | 0.12 | 0.1 to 1 |
| CC(C)(C(=O)NCc1cc(Cl)c(C2CCC(=O)NC2=O)c(Cl)c1)c1cnc(F)nc1 (stereo not drawn) [Compound 5, N-(3,5-dichloro-4-(2,6-dioxopiperidin-3-yl)benzyl)-2-(2-fluoropyrimidin-5-yl)-2-methylpropanamide] | 63 | 50 to 75 | 0.133 | 0.1 to 1 | 0.12 | 0.1 to 1 |
| CC(C)(C(=O)NCc1cc(Cl)c(C2CCC(=O)NC2=O)c(Cl)c1)c1ccc(C(F)F)nn1 (stereo not drawn) [Compound 6, N-(3,5-dichloro-4-(2,6-dioxopiperidin-3-yl)benzyl)-2-(6-(difluoromethyl)pyridazin-3-yl)-2-methylpropanamide] | 91 | > 75 | 0.007 | ≤ 0.1 | 0.21 | 0.1 to 1 |
| CC(C)(C(=O)NCc1cc(Cl)c(C2CCC(=O)NC2=O)c(Cl)c1)c1cccnn1 (stereo not drawn) [Compound 7, N-(3,5-dichloro-4-(2,6-dioxopiperidin-3-yl)benzyl)-2-methyl-2-(pyridazin-3-yl)propanamide] | 72 | 50 to 75 | 0.061 | ≤ 0.1 | 0.15 | 0.1 to 1 |
| CC(C)(C(=O)NCc1cc(Cl)c(C2CCC(=O)NC2=O)c(Cl)c1)c1ncncc1F (stereo not drawn) [Compound 8] | 93 | > 75 | 0.006 | ≤ 0.1 | 0.21 | 0.1 to 1 |
| Cn1ncc(C(C)(C)C(=O)NCc2cc(Cl)c(C3CCC(=O)NC3=O)c(Cl)c2)cc1=O (stereo not drawn) [Compound 9, N-(3,5-dichloro-4-(2,6-dioxopiperidin-3-yl)benzyl)-2-methyl-2-(1-methyl-6-oxo-1,6-dihydropyridazin-4-yl)propanamide] | 85 | > 75 | 0.022 | ≤ 0.1 | 0.21 | 0.1 to 1 |
| CC(C)(C(=O)NCc1cc(Cl)c(C2CCC(=O)NC2=O)c(Cl)c1)c1ccc2ncoc2c1 (stereo not drawn) [Compound 10, 2-(benzo[d]oxazol-6-yl)-N-(3,5-dichloro-4-(2,6-dioxopiperidin-3-yl)benzyl)-2-methylpropanamide] | 97 | > 75 | 0.001 | ≤ 0.1 | 0.06 | ≤ 0.1 |
| CC(C)(C(=O)NCc1cc(Cl)c(C2CCC(=O)NC2=O)c(Cl)c1)c1ncc(F)cn1 (stereo not drawn) [Compound 11] | 90 | > 75 | 0.009 | ≤ 0.1 | 0.19 | 0.1 to 1 |
| Cc1ccc(C(C)(C)C(=O)NCc2cc(Cl)c(C3CCC(=O)NC3=O)c(Cl)c2)nn1 (stereo not drawn) [Compound 12] | 91 | > 75 | 0.008 | ≤ 0.1 | 0.17 | 0.1 to 1 |
| CC(C)(C(=O)NCc1cc(Cl)c(C2CCC(=O)NC2=O)c(Cl)c1)c1ccncn1 (stereo not drawn) [Compound 19, N-(3,5-dichloro-4-(2,6-dioxopiperidin-3-yl)benzyl)-2-methyl-2-(pyrimidin-4-yl)propanamide] | 84 | > 75 | 0.023 | ≤ 0.1 | 0.14 | 0.1 to 1 |
| CC(C)(C(=O)NCc1cc(Cl)c(C2CCC(=O)NC2=O)c(Cl)c1)c1ccc(F)cn1 (stereo not drawn) [Compound 22] | 93 | > 75 | 0.004 | ≤ 0.1 | 0.12 | 0.1 to 1 |
| CC(C)(C(=O)NCc1cc(Cl)c(C2CCC(=O)NC2=O)c(Cl)c1)c1ccn(CC(F)(F)F)c(=O)c1 (stereo not drawn) [Compound 23] | 88 | > 75 | 0.022 | ≤ 0.1 | 0.22 | 0.1 to 1 |
| CC(C)(C(=O)NCc1ccc(C2CCC(=O)NC2=O)c(Cl)c1)c1cccc(F)c1 (stereo not drawn) [Compound 25, N-(3-chloro-4-(2,6-dioxopiperidin-3-yl)benzyl)-2-(3-fluorophenyl)-2-methylpropanamide] | 87 | > 75 | 0.023 | ≤ 0.1 | 0.29 | 0.1 to 1 |

Second part, the compound after the results:

| Dmax ([1]; read-out: NEK7 NanoBiT Dmax) [%] | Dmax [1, 3] [%] | DC50 ([1]; read-out: NEK7 NanoBiT DC50) [µM] | DC50 [1, 4] [µM] | EC50 [2] [µM] | EC50 ([2]; HTRF class, Cereblon binding) [µM] | SMILES |
| --- | --- | --- | --- | --- | --- | --- |
| 65 | 50 to 75 | 0.242 | 0.1 to 1 | 0.5 | 0.1 to 1 | CC(C)(C(=O)NCc1ccc(C2CCC(=O)NC2=O)c(Cl)c1)c1cnc(F)nc1 (stereo not drawn) [Compound 3] |
| 73 | 50 to 75 | 0.056 | ≤ 0.1 | 0.2 | 0.1 to 1 | CC(C)(C(=O)NCc1cc(Cl)c(C2CCC(=O)NC2=O)c(Cl)c1)c1cnc(C#N)nc1 (stereo not drawn) [Compound 13] |
| 95 | > 75 | 0.004 | ≤ 0.1 | 0.12 | 0.1 to 1 | CC(C)(C(=O)NCc1cc(Cl)c(C2CCC(=O)NC2=O)c(Cl)c1)c1ccc(C#N)cn1 (stereo not drawn) [Compound 15, 2-(5-cyanopyridin-2-yl)-N-(3,5-dichloro-4-(2,6-dioxopiperidin-3-yl)benzyl)-2-methylpropanamide] |
| 61 | 50 to 75 | 0.206 | 0.1 to 1 | 0.54 | 0.1 to 1 | CC(C)(C(=O)NCc1ccc(C2CCC(=O)NC2=O)c(Cl)c1)c1cccc(C#N)c1 (stereo not drawn) [Compound 18] |
| 86 | > 75 | 0.013 | ≤ 0.1 | 0.07 | ≤ 0.1 | CC(C)(C(=O)NCc1cc(Cl)c(C2CCC(=O)NC2=O)c(Cl)c1)c1ccccn1 (stereo not drawn) [Compound 20] |
| 94 | > 75 | 0.003 | ≤ 0.1 | 0.09 | ≤ 0.1 | CC(C)(C(=O)NCc1cc(Cl)c(C2CCC(=O)NC2=O)c(Cl)c1)c1cccc(C#N)c1 (stereo not drawn) [Compound 21, 2-(3-cyanophenyl)-N-(3,5-dichloro-4-(2,6-dioxopiperidin-3-yl)benzyl)-2-methylpropanamide] |
| 74 | 50 to 75 | 0.076 | ≤ 0.1 | 0.32 | 0.1 to 1 | CC(C)(C(=O)NCc1ccc(C2CCC(=O)NC2=O)c(Cl)c1)c1ccccc1F (stereo not drawn) [Compound 24] |
| 96 | > 75 | 0.002 | ≤ 0.1 | 0.07 | ≤ 0.1 | CC(C)(C(=O)NCc1cc(Cl)c(C2CCC(=O)NC2=O)c(Cl)c1)c1ccccc1F (stereo not drawn) [Compound 26] |

Reference: US20250243180A1, “TARGETED PROTEIN DEGRADATION” (Monte Rosa Therapeutics AG, priority 2023, published 2025)
